The results in this text go back to ChEMBL document CHEMBL1781959, “Synthesis and in vitro antitumor activity of substituted quinazoline and quinoxaline derivatives: search for anticancer agent” (Eur J Med Chem, 2011).

Holding throughout (type): functional
For assay [1], the system named is MOLT-4. Description: Anticancer activity against human MOLT4 cells assessed as cell growth promotion at 10^-5 M after 48 hrs by SRB assay relative to control.
The test system of assay [2] is SK-OV-3. Nature of the assay: Anticancer activity against human SKOV3 cells assessed as cell growth promotion at 10^-5 M after 48 hrs by SRB assay relative to control.
Assay [3] relates to RXF 393. Description: Anticancer activity against human RXF393 cells assessed as cell growth promotion at 10^-5 M after 48 hrs by SRB assay relative to control.
The subject of assay [4] is M14. Nature of the assay: Anticancer activity against human M14 cells assessed as cell growth promotion at 10^-5 M after 48 hrs by SRB assay relative to control.
Assay [5] concerns ACHN. Description: Anticancer activity against human ACHN cells assessed as cell growth promotion at 10^-5 M after 48 hrs by SRB assay relative to control.
For assay [6], the system named is SK-MEL-5. Description: Anticancer activity against human SK-MEL-5 cells assessed as cell growth promotion at 10^-5 M after 48 hrs by SRB assay relative to control.
For assay [7], the system named is UO-31. Description: Anticancer activity against human UO31 cells assessed as cell growth promotion at 10^-5 M after 48 hrs by SRB assay relative to control.
Assay [8] deals with KM12. Description: Anticancer activity against human KM12 cells assessed as cell growth promotion at 10^-5 M after 48 hrs by SRB assay relative to control.
Assay [9] relates to OVCAR-8. Description: Anticancer activity against human OVCAR8 cells assessed as cell growth promotion at 10^-5 M after 48 hrs by SRB assay relative to control.
For assay [10], the system named is A498. Description: Anticancer activity against human A498 cells assessed as cell growth promotion at 10^-5 M after 48 hrs by SRB assay relative to control.
The test system of assay [11] is MDA-MB-435. Description: Anticancer activity against human MDA-MB-435 cells assessed as cell growth promotion at 10^-5 M after 48 hrs by SRB assay relative to control.
Assay [12] concerns SNB-19. Nature of the assay: Anticancer activity against human SNB19 cells assessed as cell growth promotion at 10^-5 M after 48 hrs by SRB assay relative to control.
Assay [13] relates to T47D. Description: Anticancer activity against human T47D cells assessed as cell growth promotion at 10^-5 M after 48 hrs by SRB assay relative to control.
Assay [14] has as its system TK-10. Description: Anticancer activity against human TK10 cells assessed as cell growth promotion at 10^-5 M after 48 hrs by SRB assay relative to control.
The subject of assay [15] is DU-145. Nature of the assay: Anticancer activity against human DU145 cells assessed as cell growth promotion at 10^-5 M after 48 hrs by SRB assay relative to control.
Assay [16] has as its system EKVX. Description: Anticancer activity against human EKVX cells assessed as cell growth promotion at 10^-5 M after 48 hrs by SRB assay relative to control.
Assay [17] concerns SNB-75. Nature of the assay: Anticancer activity against human SNB75 cells assessed as cell growth promotion at 10^-5 M after 48 hrs by SRB assay relative to control.
Assay [18] concerns SK-MEL-2. Description: Anticancer activity against human SK-MEL-2 cells assessed as cell growth promotion at 10^-5 M after 48 hrs by SRB assay relative to control.
Assay [19] relates to NCI-H522. Nature of the assay: Anticancer activity against human NCI-H522 cells assessed as cell growth promotion at 10^-5 M after 48 hrs by SRB assay relative to control.
Assay [20] concerns BT-549. Nature of the assay: Anticancer activity against human BT549 cells assessed as cell growth promotion at 10^-5 M after 48 hrs by SRB assay relative to control.
Assay [21] relates to OVCAR-4. Nature of the assay: Anticancer activity against human OVCAR4 cells assessed as cell growth promotion at 10^-5 M after 48 hrs by SRB assay relative to control.

For the molecule `COc1ccc(OC)c(/C=C/c2nc3ccccc3nc2SCc2nc3ccccc3[nH]2)c1`, the Activity in assay [1] is on record as 69.92%; in assay [2] it was 85.7%; in [3] it was 87%; in [4], 99.58%; in [5] it was 94.36%; in assay [6], 75.46%. Besides, the Activity was determined as 60.33% in assay [7]; 97.42% in assay [8]; 92.09% in assay [9]; 95.89% in assay [10]; 105% in [11]; 98.9% in assay [12]. Further, the Activity amounted to 63.43% in assay [13], 56.15% in assay [14], 98.54% in [15] and 81.9% in [16].

Consider `N#Cc1ccc(/C=C/c2nc3ccccc3nc2SCc2nc3ccccc3[nH]2)cc1`, for which the Activity worked out at 88.59% in [1]; 107% in assay [3]; 99.32% in assay [4]; 100% in assay [5]; 101% in assay [6]; 86.51% in [7]. Also, the Activity in assay [8] was 104%; in assay [9], 103%; in assay [10], 105%; in assay [11], 109%; in assay [12] it was 100%; in assay [14], 86.49%. Besides, the results for the Activity in assay [15] and in [16] were 103% and 99.04%, respectively.

For the molecule `O=C(Nc1ccccc1C(=O)Nc1ccc(/C=C/C=C/c2ccccc2)cc1)c1ccccc1`, the Activity in assay [1] came to 77.32%; in assay [2] it was 87.56%; in assay [3], 98.83%; in [4], 83.75%; in [17] it was 82.74%; in [5] it was 87.29%. The Activity in [6] came to 77.57%; in assay [7], 49.85%; in assay [8], 93.79%; in [9] it was 104%; in [18] it was 96.46%; in assay [11], 90.52%. The Activity in assay [12] came out at 90.58%; in assay [13], 86.44%; in assay [19], 70.1%; in assay [14] it was 114%; in [15], 111%; in [20], 86.19%. In assay [16], the Activity came out at 87.7%.

In the case of `O=C(Nc1ccccc1C(=O)Nc1ccc(/C=C/c2ccc(Cl)cc2)cc1)c1ccccc1`, the Activity is 59.17% in assay [1]; 95.35% in assay [2]; 82.15% in assay [3]; 78.5% in [4]; 84.55% in assay [17]; 82.68% in assay [5]. For the same molecule, the Activity in [6] turned out to be 82.15%; in assay [7], 52.88%; in assay [8], 64.38%; in [9], 88.85%; in assay [18], 90.64%; in [11] it was 82.15%. Moreover, the Activity stood at 74.25% in [12]; 82.14% in assay [13]; 70.95% in assay [19]; 123% in [14]; 107% in assay [15]; 76.41% in assay [20]. Further, the Activity is reported as 85.63% in assay [21] and 86.68% in assay [16].

Turning to `CN(C)c1ccc(/C=C/c2nc3ccccc3nc2SCc2nc3ccccc3[nH]2)cc1`, the Activity is given as 84.64% in assay [1]; 99.96% in assay [3]; 92.21% in [4]; 103% in assay [5]; 97.96% in [6]; 84.96% in [7]. Moreover, the Activity was determined as 104% in assay [8]; 108% in assay [9]; 88.48% in [10]; 102% in assay [11]; 96.81% in [12]; 113% in assay [14]. For the same molecule, the Activity in [15] amounted to 95.35%; in assay [16] it was 92.96%.

`COc1cc(/C=C/c2ccc(NC(=O)c3ccccc3NC(=O)c3ccccc3)cc2)ccc1O`: the Activity in [1] was 86.81%; in [2], 96.53%; in assay [3], 95.14%; in [4], 92.83%; in assay [17] it was 85.88%; in assay [5], 97.71%. The Activity in assay [6] was found to be 86.16%; in assay [7], 68.52%; in assay [8], 106%; in assay [9] it was 105%; in [18], 104%; in [11], 107%. Also, the Activity in assay [12] stood at 104%; in [13], 89.85%; in assay [19], 99.45%; in [14], 97.64%; in [15] it was 108%; in assay [20] it was 95.53%. The Activity in assay [16] worked out at 100%.

Turning to `C(=C\c1nc2ccccc2nc1SCc1nc2ccccc2[nH]1)/c1ccccc1`, the Activity was determined as 63.07% in [1]; 73.61% in assay [2]; 97.82% in assay [3]; 76.83% in assay [4]; 76.83% in [5]; 17.4% in [6]. Besides, the Activity in assay [7] was found to be 58.6%; in assay [8], 79.7%; in assay [9], 82.17%; in assay [10], 71.11%; in assay [11] it was 88.93%; in assay [12] it was 82.87%. The Activity in [13] amounted to 34.6%; in [14], 44.74%; in assay [15] it was 74.33%; in [21] it was 2.71%; in assay [16], 22.23%.

On to `O=c1c2ccccc2nc(-c2ccco2)n1O`, for which the Activity in assay [1] was 101.31%; in [2] it was 106.84%; in assay [3] it was 117.15%; in [4], 89.53%; in [17] it was 86.97%; in assay [5], 98.81%. Besides, the Activity in [6] amounted to 111.56%; in assay [7], 68.92%; in assay [8] it was 110.22%; in assay [9] it was 110.28%; in assay [18], 103.59%; in [10] it was 97.65%. Further, the Activity in [11] is listed as 124.51%; in assay [12], 101.58%; in [13], 106.81%; in assay [14], 98.03%; in [15], 122.21%; in assay [20], 103.7%. The Activity in assay [21] is listed as 114.55%; in [16] it was 109.13%.

Consider `Oc1ccc(/C=C/c2nc3ccccc3nc2SCc2nc3ccccc3[nH]2)cc1`, for which the Activity in assay [1] was 75.47%; in assay [3], 106%; in assay [4], 100%; in assay [17] it was 93.68%; in [5], 93.62%; in assay [6] it was 95.26%. In addition, the Activity in [7] was found to be 85.96%; in assay [8] it was 98.91%; in [9], 100%; in assay [10] it was 88.72%; in assay [11], 96.11%; in assay [12], 97.81%. Besides, the Activity is reported as 107% in assay [14], 97.51% in [15], 107% in assay [21] and 92.68% in assay [16].

Take `Oc1ccccc1/C=C/c1nc2ccccc2nc1SCc1nc2ccccc2[nH]1`: the Activity was 57.51% in [1]; 87.29% in [3]; 70.2% in assay [4]; 69.99% in assay [5]; 68.43% in assay [6]; 49.71% in assay [7]. Moreover, the Activity in assay [8] was 77.92%; in assay [9], 75.12%; in [10], 92.56%; in [11], 81.04%; in [12] it was 76.6%; in assay [14] it was 43.48%. In addition, the Activity in [15] was 76.88%; in [21] it was 25.22%; in assay [16], 60.4%.
